Measured values from the CheMixHub viscosity set.
Several values for one entry are separate records, joined by “and”; a condition that tells them apart may be missing. Equal entries are not always repeated.

Test: xn = mol fraction of the nth substance listed

COC(=O)c1ccccc1 + CCCCCCCC
101 kPa
Conditions	viscosity [mPa·s]
298.15 K, x2 = 0.0356	1.698
298.15 K, x2 = 0.0736	1.572
298.15 K, x2 = 0.1081	1.474
298.15 K, x2 = 0.1549	1.349
298.15 K, x2 = 0.1926	1.265
298.15 K, x2 = 0.2388	1.169
298.15 K, x2 = 0.3669	0.961
298.15 K, x2 = 0.4093	0.905
298.15 K, x2 = 0.4513	0.855
298.15 K, x2 = 0.5041	0.796
298.15 K, x2 = 0.55	0.754
298.15 K, x2 = 0.6034	0.707
298.15 K, x2 = 0.6567	0.669
298.15 K, x2 = 0.7105	0.634
298.15 K, x2 = 0.7575	0.606
298.15 K, x2 = 0.8645	0.558
298.15 K, x2 = 0.9387	0.533
308.15 K, x2 = 0.0548	1.358
308.15 K, x2 = 0.0935	1.263
308.15 K, x2 = 0.1329	1.177
308.15 K, x2 = 0.1743	1.099
308.15 K, x2 = 0.216	1.026
308.15 K, x2 = 0.2531	0.967
308.15 K, x2 = 0.2946	0.909
308.15 K, x2 = 0.341	0.852
308.15 K, x2 = 0.3823	0.806
308.15 K, x2 = 0.4247	0.763
308.15 K, x2 = 0.4738	0.719
308.15 K, x2 = 0.5182	0.685
308.15 K, x2 = 0.5728	0.645
308.15 K, x2 = 0.6245	0.612
308.15 K, x2 = 0.6742	0.583
308.15 K, x2 = 0.7274	0.558
308.15 K, x2 = 0.774	0.536
308.15 K, x2 = 0.8351	0.512
308.15 K, x2 = 0.9135	0.486
318.15 K, x2 = 0.0668	1.147
318.15 K, x2 = 0.0719	1.139
318.15 K, x2 = 0.112	1.068
318.15 K, x2 = 0.1404	1.022
318.15 K, x2 = 0.1952	0.94
318.15 K, x2 = 0.2418	0.876
318.15 K, x2 = 0.2828	0.823
318.15 K, x2 = 0.3337	0.764
318.15 K, x2 = 0.3678	0.729
318.15 K, x2 = 0.4175	0.682
318.15 K, x2 = 0.463	0.644
318.15 K, x2 = 0.5158	0.605
318.15 K, x2 = 0.5624	0.576
318.15 K, x2 = 0.6149	0.548
318.15 K, x2 = 0.6664	0.525
318.15 K, x2 = 0.7241	0.502
318.15 K, x2 = 0.7767	0.485
318.15 K, x2 = 0.8373	0.468
318.15 K, x2 = 0.8921	0.453

CC(C)OCCO + CC(=O)N(C)C
298.15 K, 101 kPa
Conditions	viscosity [mPa·s]
x1 = 0.0063	0.956
x1 = 0.014	0.97
x1 = 0.0243	0.983
x1 = 0.0518	1.016
x1 = 0.0792	1.049
x1 = 0.1131	1.092
x1 = 0.1712	1.167
x1 = 0.2095	1.225
x1 = 0.2923	1.336
x1 = 0.3534	1.422
x1 = 0.3673	1.443
x1 = 0.3996	1.494
x1 = 0.4419	1.555
x1 = 0.4958	1.63
x1 = 0.5445	1.704
x1 = 0.6028	1.782
x1 = 0.6671	1.871
x1 = 0.7594	1.973
x1 = 0.8097	2.044
x1 = 0.867	2.083
x1 = 0.9066	2.098
x1 = 0.9627	2.102
x2 = 0.006	2.106
x2 = 0.0146	2.105

CC(C)OCCO + CCCCCCCCO
viscosity [mPa·s], 101 kPa
Conditions	298.15 K	303.15 K	308.15 K
x1 = 0.0517	7.288	6.066	5.217
x1 = 0.1016	6.902	5.729	4.938
x1 = 0.1531	6.517	5.401	4.671
x1 = 0.2013	6.178	5.106	4.415
x1 = 0.2524	5.832	4.817	4.162
x1 = 0.3033	5.49	4.523	3.906
x1 = 0.4	4.893	4.027	3.482
x1 = 0.5012	4.314	3.556	3.086
x1 = 0.618	3.706	3.07	2.691
x1 = 0.7017	3.325	2.776	2.459
x1 = 0.8102	2.849	2.418	2.155
x1 = 0.8492	2.721	2.322	2.091
x1 = 0.9046	2.477	2.157	1.986
x1 = 0.9472	2.36	2.064	1.911

CCCCNCCO + CCCCOCCO
viscosity
Conditions	293.15 K	298.15 K	303.15 K	308.15 K	313.15 K	318.15 K	323.15 K
101.3 kPa, x1 = 0.404	7.13 mPa·s	5.95 mPa·s	5.02 mPa·s	4.27 mPa·s	3.67 mPa·s	3.18 mPa·s	2.77 mPa·s
101.3 kPa, x1 = 0.604	10.3 mPa·s	8.4 mPa·s	6.94 mPa·s	5.8 mPa·s	4.89 mPa·s	4.17 mPa·s	3.58 mPa·s
101.33 kPa, x1 = 0.1	3.94 mPa·s and 3.941 mPa·s	3.4 mPa·s and 3.405 mPa·s	2.96 mPa·s and 2.963 mPa·s	2.6 mPa·s and 2.598 mPa·s	2.29 mPa·s and 2.294 mPa·s	2.04 mPa·s and 2.038 mPa·s	1.82 mPa·s and 1.821 mPa·s
101.33 kPa, x1 = 0.2	4.813 mPa·s	4.111 mPa·s	3.541 mPa·s	3.075 mPa·s	2.69 mPa·s	2.369 mPa·s	2.099 mPa·s
101.33 kPa, x1 = 0.3	5.87 mPa·s and 5.865 mPa·s	4.95 mPa·s and 4.952 mPa·s	4.22 mPa·s and 4.221 mPa·s	3.63 mPa·s and 3.629 mPa·s	3.15 mPa·s and 3.146 mPa·s	2.75 mPa·s and 2.746 mPa·s	2.41 mPa·s and 2.414 mPa·s
101.33 kPa, x1 = 0.4	7.135 mPa·s	5.951 mPa·s	5.019 mPa·s	4.272 mPa·s	3.669 mPa·s	3.176 mPa·s	2.77 mPa·s
101.33 kPa, x1 = 0.5	8.57 mPa·s and 8.573 mPa·s	7.07 mPa·s and 7.072 mPa·s	5.9 mPa·s and 5.901 mPa·s	4.98 mPa·s and 4.975 mPa·s	4.24 mPa·s and 4.236 mPa·s	3.64 mPa·s and 3.638 mPa·s	3.15 mPa·s and 3.149 mPa·s
101.33 kPa, x1 = 0.6	10.3 mPa·s	8.404 mPa·s	6.94 mPa·s	5.796 mPa·s	4.891 mPa·s	4.166 mPa·s	3.58 mPa·s
101.33 kPa, x1 = 0.7	12.21 mPa·s	9.853 mPa·s	8.056 mPa·s	6.668 mPa·s	5.582 mPa·s	4.719 mPa·s	4.027 mPa·s
101.33 kPa, x1 = 0.8	14.41 mPa·s	11.5 mPa·s	9.314 mPa·s	7.641 mPa·s	6.345 mPa·s	5.326 mPa·s	4.514 mPa·s
101.33 kPa, x1 = 0.9	16.91 mPa·s	13.36 mPa·s	10.72 mPa·s	8.718 mPa·s	7.183 mPa·s	5.985 mPa·s	5.042 mPa·s

CCCCOCCO + CCCCCCCCO
viscosity [mPa·s], 101 kPa
Conditions	298.15 K	303.15 K	308.15 K
x1 = 0.6004	3.885	–	2.965
x1 = 0.8027	–	2.825	2.545

CCOC(=O)CCl + CCCCCCCCCC
viscosity [mPa·s], 101.33 kPa
Conditions	x1 = 0.0992	x1 = 0.2037	x1 = 0.3031	x1 = 0.4005	x1 = 0.5016	x1 = 0.6027	x1 = 0.7039	x1 = 0.8019	x1 = 0.9008
298.15 K	0.821	0.825	0.828	0.843	0.869	0.897	0.93	0.969	1.024
303.15 K	0.761	0.766	0.767	0.78	0.801	0.827	0.854	0.885	0.946
308.15 K	0.707	0.713	0.719	0.725	0.742	0.765	0.791	0.829	0.872

CCCCCCBr + C=C(C)C(=O)OC
303.15 K, 101 kPa
Conditions	viscosity [mPa·s]
x2 = 0.1439	0.8087
x2 = 0.2632	0.7611
x2 = 0.4885	0.6895
x2 = 0.5904	0.6665
x2 = 0.6826	0.6354
x2 = 0.8513	0.5709
x2 = 0.9171	0.5459

CCOC(=O)CCl + Cc1ccccc1
viscosity [mPa·s], 101.3 kPa
Conditions	x1 = 0.1004	x1 = 0.207	x1 = 0.299	x1 = 0.4013	x1 = 0.5048	x1 = 0.6083	x1 = 0.6963	x1 = 0.8022	x1 = 0.9006
298.15 K	0.594	0.631	0.671	0.714	0.768	0.823	0.878	0.945	1.02
303.15 K	0.561	0.594	0.63	0.669	0.719	0.77	0.818	0.881	0.947
308.15 K	0.528	0.559	0.59	0.626	0.671	0.718	0.758	0.817	0.873

O=C(OCc1ccccc1)c1ccccc1 + CCOC(=O)c1ccccc1
298.15 K, 101 kPa
Conditions	viscosity [mPa·s]
x2 = 0.0465	8.039
x2 = 0.1549	6.898
x2 = 0.2475	6.108
x2 = 0.2973	5.695
x2 = 0.3945	4.948
x2 = 0.5054	4.309
x2 = 0.5941	3.74
x2 = 0.6906	3.249
x2 = 0.8023	2.749
x2 = 0.8963	2.371

CCOS(=O)(=O)[O-].CC[N+](CC)=C(N(C)C)N(C)C + CCO
viscosity [mPa·s], 100 kPa
Conditions	x1 = 0.1001	x1 = 0.2003	x1 = 0.2998	x1 = 0.4023	x1 = 0.4998	x1 = 0.6016	x1 = 0.6979	x1 = 0.8024	x1 = 0.8974
293.15 K	2.916	5.857	11.49	20.43	32.82	54.53	82.56	121	160.5
298.15 K	2.62	5.197	9.941	17.2	27.12	43.51	64.03	91.64	119.1
303.15 K	2.373	4.64	8.688	14.71	22.61	35.19	50.61	70.75	90.75
308.15 K	2.155	4.166	7.649	12.71	19.18	29.07	40.85	55.99	70.53
313.15 K	1.964	3.765	6.793	11.08	16.48	24.39	33.63	45.19	56.15
318.15 K	1.797	3.419	6.036	9.76	14.28	20.68	27.81	36.81	45.06
323.15 K	1.649	3.118	5.43	8.634	12.47	17.74	23.62	30.6	36.93
